Consider six molecules from PMC11678162 (Pharmaceutics, 2024).

Bridge positions count the residues as written; N and C are the ends. Square brackets hold non-standard residues; d marks the D form. Peptide text beside a SMILES is read from it. pGlu = O=C1CC[C@@H](C(=O)O)N1

Series [1] has as its system freshly isolated human erythrocytes (hRBCs). Put plainly: Hemolysis (hemoglobin release assay). Format: cell-based. The note with it: 4% hRBCs, 1.5 h of incubation. As to the method: Hemolytic activity was determined using freshly isolated human erythrocytes (hRBCs) according to a previously published method. Isotonic phosphate buffer (PBS) and 0.1% Triton X-100 were used as controls for the absence of lysis and complete disintegration of hRBCs, respectively.

Series [2] deals with human peripheral blood mononuclear cells (PBMC). Put plainly: Cytotoxicity, resazurin assay. It is filed as cell-based. The note with it: RPMI-1640 + 10% FBS, 24 h of incubation. As to the method:
The cytotoxic effect of the peptides was tested on human peripheral blood mononuclear cells (PBMC) using the resazurin assay. To perform the analysis, double serial dilutions of the studied peptides were performed in RPMI-1640 nutrient medium supplemented with 10% FBS in sterile 96-well flat-bottom polystyrene microplates (Nest, Wuxi, Jiangsu, China). Next, an equal volume of RPMI medium containing a suspension of freshly isolated PBMC was added to the peptide solution to a total volume of 100 μL and a cell concentration of 5 × 10^4 per well. The plates were incubated for 20 h in a CO2 incubator (5% CO2, 37 °C) and then 5 µL of resazurin solution was added at a concentration of 0.1 mg/mL, after which the incubation was continued for 4 h. The fluorescence of the formed resorufin was measured using an AF2200 microplate reader (Eppendorf, Germany) using the following channel: λExc = 535 nm; λem = 595 nm. The fluorescence signal in the wells containing cells cultured without peptides was taken as a 100% cell viability. Wells containing no cells were used as a negative control. Experimental data were obtained in two independent experiments performed in triplicate.

A short description of series [3]: Stability in serum. It is filed as in vitro ADME, human. The settings on record: 37 °C. As to the method: The serum stability of DsGom was determined in 25% fresh human serum in PBS (pH 7.4), as described previously. Briefly, 20 μL of aqueous peptide stock solution (5 mg/mL) was added to 480 μL of serum solution and incubated for 0, 2, 8, and 24 h at 37 °C. After incubation, serum proteins were selectively precipitated from the mixture by adding 10% TFA in the presence of 3.75 M of urea. Subsequently, the samples were stored at 0 °C for 30 min and centrifuged at 30,000× g for 10 min. Equal volumes of supernatants after serum protein precipitation were analyzed by analytical HPLC (Symmetry 300 C18 column, Waters, Milford, MA, USA) and MALDI-TOF MS. The amount of the intact peptide was estimated from the corresponding peak area on the HPLC chromatogram. For each peptide, two independent experiments were performed in triplicate. The comparison of the results and statistical processing were performed using GraphPad Prism 6.0 (GraphPad Software, Boston, MA, USA).

The nature of series [4]: serum. The settings on record: cited from earlier work.
Series [5] can be described thus: 25% fresh human serum in PBS (pH 7.4). The settings on record: 37 °C, up to 24 h.

For the molecule `CC(C)C[C@@H]1NC(=O)[C@H](CCCNC(=N)N)NC(=O)[C@H](CCCNC(=N)N)NC(=O)[C@@H](NC(=O)[C@@H]2CCC(=O)N2)CSSC[C@@H](C(=O)N[C@@H](CO)C(=O)NCC(=O)N[C@@H](CCCNC(=N)N)C(=O)O)NC(=O)[C@H](Cc2ccc(O)cc2)NC(=O)[C@H]([C@@H](C)O)NC(=O)[C@H](CC(C)C)NC(=O)[C@@H]2CSSC[C@H](NC1=O)C(=O)N[C@@H](Cc1ccccc1)C(=O)N[C@@H](CCCNC(=N)N)C(=O)N[C@@H](CC(N)=O)C(=O)N[C@@H](CCCNC(=N)N)C(=O)N2` [Gom-2] ([pGlu]CRRLCFRNRCLTYCSGR-OH; disulfide 2-15, 6-11), the “hemolytic activity (in words)” value in series [1] (compared to gomesin) is recorded as “significantly higher grade of hemolytic activity”.

With `CC(C)[C@@H]1NC(=O)[C@@H]2CSSC[C@H](NC(=O)[C@H](C(C)C)NC(=O)[C@H](CCCNC(=N)N)NC(=O)[C@H](CCCNC(=N)N)NC(=O)[C@@H](NC(=O)[C@@H](N)CCCNC(=N)N)CSSC[C@@H](C(=O)O)NC(=O)[C@H](Cc3ccc(O)cc3)NC(=O)[C@H](CCC(N)=O)NC1=O)C(=O)N[C@@H](Cc1ccc(O)cc1)C(=O)N[C@@H](CCCCN)C(=O)N[C@@H](CCCCN)C(=O)N[C@@H](CCCNC(=N)N)C(=O)N2` [DS7] (H-RCRRVCYKKRCVQYC-OH; disulfide 2-15, 6-11), the “cytotoxic effects on PBMC (in words)” value in series [2] is recorded as “significantly enhanced cytotoxic effects on PBMC”.

Take `CC(C)[C@@H]1NC(=O)[C@@H]2CSSC[C@H](NC(=O)[C@H](C(C)C)NC(=O)[C@H](CCCNC(=N)N)NC(=O)[C@H](CCCNC(=N)N)NC(=O)[C@@H](NC(=O)[C@@H](N)CCCNC(=N)N)CSSC[C@@H](C(=O)O)NC(=O)[C@H](Cc3ccc(O)cc3)NC(=O)[C@H](CCC(N)=O)NC1=O)C(=O)N[C@@H](Cc1ccc(O)cc1)C(=O)N[C@@H](CCCCN)C(=O)N[C@@H](CCCCN)C(=O)N[C@@H](Cc1c[nH]cn1)C(=O)N2` [DS5] (H-RCRRVCYKKHCVQYC-OH; disulfide 2-15, 6-11): the “cytotoxic effects on PBMC (in words)” value in series [2] is recorded as “significantly enhanced cytotoxic effects on PBMC”.

For `CC(C)[C@@H]1NC(=O)[C@@H]2CSSC[C@H](NC(=O)[C@H](C(C)C)NC(=O)[C@H](CCCNC(=N)N)NC(=O)[C@H](Cc3c[nH]cn3)NC(=O)[C@@H](NC(=O)[C@@H](N)CCCNC(=N)N)CSSC[C@@H](C(=O)O)NC(=O)[C@H](Cc3ccc(O)cc3)NC(=O)[C@H](CCC(N)=O)NC1=O)C(=O)N[C@@H](Cc1ccc(O)cc1)C(=O)N[C@@H](Cc1c[nH]cn1)C(=O)N[C@@H](CCCCN)C(=O)N[C@@H](Cc1c[nH]cn1)C(=O)N2` [DsGom] (H-RCHRVCYHKHCVQYC-OH; disulfide 2-15, 6-11), the amount remaining at 24 h, 0.2 mg/mL in series [3] (25% fresh human serum in PBS (pH 7.4), 20 μL of 5 mg/mL stock in 480 μL, TFA/urea precipitation, HPLC peak area (0 h = 100%), two independent experiments in triplicate, read-out: initial amount of peptide remaining intact) was at least 90%. Further, the “percentage of the form without the N-terminal arginine residue in the main peak” value in series [3] (25% human serum in PBS, 24 h, MALDI MS of the HPLC fraction) is below 10%. In addition, the grade of hemolysis in series [1] (128 µM peptide, 0.1% Triton X-100 = complete lysis, two independent experiments) is reported as ~ 1%.

As to ZCRRLCYKQRCVTYCRGR, the not cleaved result in series [4] is “quite stable in the presence of serum enzymes”.

On to RCHRVCYHKHCVQYC, for which, in series [5], the cleaved bond entry is recorded as “Arg1-C2, minor, 8 h”.

By fraction remaining is commonly meant what is left of the initial amount, in per cent.
